Experimental data as given in patent publication US20130315903A1, “ARYLSULFONAMIDE DERIVATIVES FOR THE PREVENTION OR TREATMENT OF SPECIFIC OPHTHALMOLOGIC DISORDERS” (FOVEA PHARMACEUTICALS, priority 2010, published 2013).
Values joined by “and” are separate entries in the source; they are usually repeats but may differ in a detail not shown here. Identical values can stand only once.

Columns and labels:
[1] = tested on: retinal vascular permeability in streptozotocin-diabetic Brown-Norway rats; test: Retinal vascular permeability (Evans Blue dye) in streptozotocin-diabetic Brown-Norway rats, eye drops; assay type: in vivo, rat
Procedure: Male Brown-Norway or Wistar rats were made diabetic by […] injection of 65 mg/kg intraperitoneal streptozotocin. Rats with a glycemia <350 mg/dl were discarded from the study. Seven days later, Brown-Norway rats were treated twice daily for 7 days with a single eye drop (10 μl) containing 0.1, 0.3, 1 and 3% phosphate salt of compound n° 49 or its vehicle (Saline Solution). Wistar rats were treated over the same period (from day 7 for 7 days) with a single eye drop (10 μl) containing 0.3 and 1% fumarate salt of compound n° 49 or its vehicle (Saline Solution). On day 15, retinal vascular leakage was determined by measurement of retinal content of Evans Blue dye.
More specifically, FIG. 1A is the dose-response of compound n° 49 instilled twice a day for 7 days as eye drops (0.1 to 3%) on retinal vascular leakage in streptozotocin-diabetic Brown-Norway rats. Recombinant tissue kallikrein binding protein (rKBP) was used as a reference drug and was given intravitreally 48 hours before vascular leakage measurement. Values are means ±standard error mean of 12 eyes/group (6 rats). *** means that P<0.001in a Student's t-test.
The route by which the phosphate salt of compound n° 49 reaches the retina following topical instillation was investigated to determine whether it is mainly by systemic circulation or by the trans- and/or peri-ocular pathway. Diabetic Brown-Norway rats were treated with 3% compound n° 49 phosphate in a single eye for 7 days or subcutaneously with matching daily dosage (0.6 mg/rat). […] In addition, a daily subcutaneous administration of 0.6 mg compound n° 49 phosphate rat had no effect on retinal vascular permeability.

[2] = tested on: leukocyte adhesion to the retinal vasculature; test: Leukocyte adhesion to the retinal vasculature (leukostasis) of streptozotocin-diabetic Wistar rats; assay type: in vivo, rat; details: 1% phosphate eye drop twice-a-day for 7 days, P<0.05
Excerpt: The effect of compound n° 49 phosphate on leukocyte adhesion to the retinal vasculature of streptozotocin-diabetic Wistar rats was also investigated using the same protocol of administration of compound n° 49 phosphate (1% eye drop twice-a-day for 7 days).

[3] = tested on: retina of diabetic Wistar rats (B1R, B2R, i-NOS, e-NOS, COX-2, ICAM-1, VEGF-R2, VEGF-a, IL-1β, HIF-1α mRNA); test: mRNA expression of cytokines, vasoactive mediators and growth factors in retina of diabetic Wistar rats; assay type: in vivo, rat; details: 1% eye drops 7 days
[4] = tested on: retina of diabetic Wistar rats (B1R, B2R, i-NOS, e-NOS, COX-2, ICAM-1, VEGF-R2, VEGF-a, IL-1β, HIF-1α mRNA); test: as above; assay type: in vivo, rat; details: 1% eye drops 7 days; remark: listed apart in the source
Excerpt: In order to explore molecular pathways involved into reduction of retinal vascular permeability by compound n° 49 phosphate in diabetic rats, expression of mRNA of cytokines, vasoactive mediators and growth factors was quantified in retina of control and diabetic Wistar rats treated or not with 1% compound n° 49 phosphate eye drops for 7 days. Expression of mRNA of B1R, B2R, i-NOS, e-NOS, COX-2, ICAM-1, VEGF-R2, VEGF-a, IL-1β and HIF-1α was increased in diabetic rat retina compared to control by 7.5-fold (P<0.05), 5.5, 15- (P<0.01), 6.5-, 8- (P<0.05), 8- , 5- (P<0.05), 12-, 6.5- (P<0.01) and 7-fold (P<0.05), respectively. Expression of TNF-α mRNA remained unchanged.

[5] = tested on: retinal vascular leakage in STZ diabetic Brown-Norway rats; details: intravitreal route, positive reference drug; cited from earlier work

Molecule: COc1cc(C)c(S(=O)(=O)N(C)CCOCC(=O)N(C)Cc2ccc(C3=NCCN3)cc2)c(C)c1 [compound n° 49]
- reduction of retinal edema, maximum ([1]; 1% eye drops, two separate preliminary studies (data not shown), strain not stated): 58% and 63%

Molecule: COc1cc(C)c(S(=O)(=O)N(C)CCOCC(=O)N(C)Cc2ccc(C3=NCCN3)cc2)c(C)c1 [compound n° 49 phosphate]
- leukostasis in retinal vessels of diabetic rats [2]: significantly blunted
- mRNA expression of IL-1β in retina [3]: down-regulated to control level
- reduction of retinal vascular permeability, treated eye ([1]; 3% phosphate in a single eye for 7 days, diabetic Brown-Norway rats, P<0.001): 37%
- reduction of retinal oedema, maximum ([1]; phosphate salt, eye drop 0.1-3% twice daily for 7 days, dose-dependent, diabetic Brown-Norway rats): 55%
- mRNA expression of B1R in retina [4]: down-regulated to control level
- mRNA expression of B2R in retina [4]: down-regulated to control level
- mRNA expression of COX-2 in retina [4]: down-regulated to control level
- mRNA expression of HIF-1α in retina [4]: down-regulated to control level
- mRNA expression of ICAM-1 in retina [4]: down-regulated to control level
- mRNA expression of VEGF-A in retina (in list down-regulated to control level) [4]: down-regulated to control level
- mRNA expression of e-NOS in retina [4]: down-regulated to control level
- mRNA expression of i-NOS in retina [4]: down-regulated to control level
- reduction of expression of VEGF-A mRNA in retina [4]: 50%

B1: rKBP: Recombinant tissue kallikrein binding protein, reference drug given intravitreally (protein, UniProt P29622 21-427, looked up)
Kallistatin: QLHVEHDGESCSNSSHQQILETGEGSPSLKIAPANADFAFRFYYLIASETPGKNIFFSPLSISAAYAMLSLGACSHSRSQILEGLGFNLTELSESDVHRGFQHLLHTLNLPGHGLETRVGSALFLSHNLKFLAKFLNDTMAVYEAKLFHTNFYDTVGTIQLINDHVKKETRGKIVDLVSELKKDVLMVLVNYIYFKALWEKPFISSRTTPKDFYVDENTTVRVPMMLQDQEHHWYLHDRYLPCSVLRMDYKGDATVFFILPNQGKMREIEEVLTPEMLMRWNNLLRKRNFYKKLELHLPKFSISGSYVLDQILPRLGFTDLFSKWADLSGITKQQKLEASKSFHKATLDVDEAGTEAAAATSFAIKFFSAQTNRHILRFNRPFLVVIFSTSTQSVLFLGKVVDPTKP
- reduction of retinal vascular leakage [5]: approximately 50%
